Values joined by “and” are separate entries in the source; they are usually repeats but may differ in a detail not shown here. Equal values may be shown once. Read-outs that look alike come from different tables or passages of the source.
What was measured:
[1] = system: MHCC97H cells; set-up: method as in PMID 29393886; conditions: compounds bearing a single chiral center, from our previous work; read-out: MHCC97H Cell IC50; cited from earlier work
[2] = biological target: T1, c-Met kinase (Homo sapiens, UniProt P08581); experiment: c-Met kinase inhibition assay (Mobility Shifting Assay); type: biochemical; conditions: mean ± SD of three independent experiments
T1 construct: purchased Carna Bioscience 08-151
Procedure: The kinase inhibition assay was carried out according to the principle of MSA (Mobility Shifting Assay) detection. […] Using triple dilution method, 10 gradient concentration groups were received. Varying concentrations of compounds were transported in 384-well plates, and 100% DMSO was set as negative control. After adding kinase buffer, the 384-well plates were centrifuged and vortexed, followed by 10 min of incubation. […] Finally, adding stop solution ended kinase reaction, and the conversion% was detected by a microplate reader (Caliper EZ Reader II, Perkin Elmer, Waltham, Massachusetts, […]). The statistics were analyzed by GraphPad Prism 8, using log (inhibitor) vs. response–variable slope to fit the dose–effect curve.

[3] = system: MHCC97H cells; experiment: MTT antiproliferative assay; type: cell-based, human
Excerpt: On the basis of our former study, compounds 12a-b were designed and first screened for their antiproliferative activity against the c-Met-driven human hepatocarcinoma cells (MHCC97H), using a standard MTT assay. Tepotinib was used as a positive control.

[4] = system: MHCC97H cells; experiment: Hoechst 33342 staining for apoptosis morphology; type: cell-based, human; conditions: 1, 5, and 10 nM, 48 h, vs vehicle control
Excerpt: Tumor cell apoptosis is an important stage in the effective treatment of cancer. To evaluate the capacity of compound (R, S)-12a to induce apoptosis in human cancer cell lines, we used Hoechst 33342 staining to investigate the effect of compound (R, S)-12a on MHCC97H cells. Hoechst 33342 staining was used to examine apoptosis through morphological observation.

[5] = system: AKT; experiment: Immunofluorescence staining and Western blotting of AKT and p-AKT in MHCC97H cells; type: cell-based, human
Procedure: (§1) MHCC97H cells were seeded into confocal dishes and then treated with vehicle control (1‰ DMSO) and compound (R, S)-12a (2.5 nM). Cells were washed thrice with PBS, fixed with 4% paraformaldehyde for 15 min, and punched with 0.2% triton X100 and then blocked with 500 μL of blocking buffer at room temperature for 1 h. Cells were incubated with a primary monoclonal antibody (c-Met, p-c-Met, AKT, and p-AKT) at 4 °C for 12 h and then washed with PBS thrice, followed by incubation with the fluorescence secondary antibody (Alexa Fluor 488-labeled Goat Anti-Mouse IgG (H + L)-A0428) and labeling of nuclei by Hoechst33342 (MA0126, Meilunbio, Dalian, Liaoning, China). The cells were finally visualized by a confocal microscope (Carl Zessi Microscopy LSM 880, Oberkochen, Germany). The average fluorescence intensity of FITC channel was analyzed by Image J, and the illustration was drafted by GraphPad Prism8.
(§2) MHCC97H cells were then homogenized with lysis buffer. The protein concentrations were detected using a BCA Protein Assay Kit (Pierce BCA Protein Assay Kit 23227, Thermo, Waltham, MA, USA), and their extracts were reconstituted within loading buffer (Beyotime, Shanghai, China) and inactivated for 5 min at 100 °C. Subsequently, proteins (20 μg) were fractionated by 10% SDS-PAGE and transferred to PVDF membranes. Then, PVDF membranes were blocked in 10% skimmed milk and incubated with the appropriate dilution of primary antibodies, including c-Met (Abcam, Cambridge, UK), p-c-Met (Abcam), AKT (Cell Signaling Technology), p-AKT (Cell Signaling Technology), and GAPDH (Cell Signaling Technology, […], MA, USA). The above primary antibodies were then reacted with HRP-conjugated secondary antibody, and immunoreactive bands were visualized by an ECL Detection Reagent (36208ES60, Yeasen, Shanghai, China) and were estimated through densitometry with a chemiluminescence imaging system (Tanon, Shanghai, China). Intensities of the blots were quantified with Image J and analyzed by GraphPad Prism 8.

[6] = system: c-Met; experiment: Immunofluorescence staining and Western blotting of c-Met and p-c-Met in MHCC97H cells; type: cell-based, human
Procedure: as §1, §2

[7] = system: HaCat (human immortalized keratinocytes); experiment: Toxicity towards normal cells (HaCat); conditions: for IC50: Homo sapiens, HaCaT, read-out: IC50 on HaCat
[8] = system: MHCC97H cells; experiment: Annexin V-FITC/PI apoptosis analysis (flow cytometry); type: cell-based, human; conditions: 48 h
Procedure: MHCC97H cells were incubated with varying concentrations of compound (R, S)-12a or diluent (1‰ DMSO, as a negative control) for 48 h. The cells were harvested and washed with PBS twice. Then, 500 μL of binding buffer suspended cells were added. The cells were stained with 5 μL of Annexin V-FITC and 10 μL of PI (KGA105, KeyGEN, BioTECH, Nanjing, Jiangsu, China). Then, the cells were incubated at room temperature for 15 min without light exposure. Apoptosis was analyzed using a CytoFLXE flow cytometer (BECKMAN COLTER, Brea, CA, USA).

[9] = system: LO2 (human normal liver cells); experiment: Toxicity towards normal cells (LO2); conditions: for IC50: Homo sapiens, read-out: IC50 on LO2
[10] = system: MHCC97H cells; experiment: Wound healing (cell scratch) assay; type: cell-based, human; conditions: 1, 2, and 3 nM; 0, 6, 12, and 24 h; vs vehicle control
Procedure: MHCC97H cells were seeded in a 6-well plate and cultured for 24 h; subsequently, the confluent monolayer cells were scratched with a 10 μL pipette tip. After that, the wound was washed with PBS thrice to remove the non-adherent cell debris. In addition, each petri dish had media containing (R, S)-12a in gradient concentrations (1, 2, and 3 nM) added. At 0, 6, 12, and 24 h, changes of cell scratch in area were photographed by phase contrast microscope and finally measured and analyzed by Image J.

[11] = system: MHCC-97H tumor cells; experiment: Tumor cell morphology; type: cell-based, human; conditions: 10 and 50 nM
Procedure: Co-incubation with compound (R, S)-12a (1, 10, and 50 nM) led to a significant reduction in […] cell viability. Red arrowheads indicated distinct morphological changes, such as intracytoplasmic particles increasing, the cell shape change, and loss of adherent property. […] Aggregation, lysis, and cell debris also occurred.

[12] = system: MHCC97H cells; experiment: Cell cycle analysis (PI, flow cytometry); type: cell-based, human; conditions: 10 nM, 48 h
Procedure: MHCC97H cells were incubated with varying concentrations of compound (R, S)-12a or 1‰ DMSO for 48 h. The cells were collected by centrifugation, washed with PBS, and fixed in 70% ice-cold ethanol at 4 °C for 12 h. After the removal of ethanol, each sample was re-suspended in 500 μL of staining buffer containing 50 μL of RNase A and 450 μL of propidium iodide (KGA511, KeyGEN, BioTECH, Nanjing, Jiangsu, China) and incubated at room temperature, avoiding light exposure for 30 min. The DNA content of the cells was measured using a CytoFLXE flow cytometer (BECKMAN COLTER, Brea, CA, USA).

[13] = MTT, 48 h, mean ± SD of three independent experiments, read-out: MHCC97H Cell IC50
[14] = immunofluorescence, 2.5 nM, 48 h

T1 sequence (P08581 956-1390 limits assumed): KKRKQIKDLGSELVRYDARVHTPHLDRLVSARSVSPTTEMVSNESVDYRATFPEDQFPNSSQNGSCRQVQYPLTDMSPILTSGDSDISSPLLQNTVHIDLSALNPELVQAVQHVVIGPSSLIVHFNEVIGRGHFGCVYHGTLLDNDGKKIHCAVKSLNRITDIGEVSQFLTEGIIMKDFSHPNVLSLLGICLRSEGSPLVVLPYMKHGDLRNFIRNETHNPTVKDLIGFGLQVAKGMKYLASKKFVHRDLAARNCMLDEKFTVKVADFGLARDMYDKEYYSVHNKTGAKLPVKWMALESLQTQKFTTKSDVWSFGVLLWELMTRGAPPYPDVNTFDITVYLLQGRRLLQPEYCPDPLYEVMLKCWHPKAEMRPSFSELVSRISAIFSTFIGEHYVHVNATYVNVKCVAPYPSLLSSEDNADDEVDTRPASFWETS

CC(c1cccc(-c2ncc(OCC3CCN(C)CC3)cn2)c1)n1nc(-c2cccc(C#N)c2)ccc1=O (racemic) [(±)-5b]
IC50 [1]: 35.3 ± 11 nM

C[C@H](c1cccc(-c2ncc(OCC3CCN(C)CC3)cn2)c1)n1nc(-c2cccc(C#N)c2)ccc1=O [(R)-5b]
IC50 [1]: 3.7 ± 1 nM

CC(Oc1cnc(-c2cccc(C(C)n3nc(-c4cccc(C#N)c4)ccc3=O)c2)nc1)C1CCN(C)CC1 [(R, R)-12a]
IC50 [2]: 28.7 ± 5 nM
IC50 [3, 13]: 30 ± 8 nM

CC(Oc1cnc(-c2cccc(C(C)n3nc(-c4cccc(C#N)c4)ccc3=O)c2)nc1)C1CCN(C)CC1 [(R, S)-12a]
nuclear morphology by Hoechst 33342 staining [4]: obvious nucleolar pyknosis, DNA fragmentation, and chromatin condensation
phosphorylation level of AKT protein ([5]; Western blot, dose-dependent): decrease
fluorescence intensity of AKT (total AKT protein) [5, 14]: did not change significantly
fluorescence intensity of p-AKT [5, 14]: decreased significantly
IC50 [2]: 1.56 ± 1 nM
phosphorylation level of c-Met ([6]; Western blot, dose-dependent): decrease
fluorescence intensity of c-Met (total c-Met protein) [6, 14]: did not change significantly
fluorescence intensity of p-c-Met [6, 14]: decreased significantly
IC50 ([3]; Homo sapiens, MHCC97H, Table 2, read-out: IC50 on MHCC-97H): 2 ± 2 nM
IC50 [3, 13]: 2.1 nM
Selectivity Index (HaCat vs MHCC-97H) [7]: 953.5
IC50 [7]: 1910 ± 250 nM
proportions of early and late apoptosis cells ([8]; 1 nM): 8.9%
proportions of early and late apoptosis cells ([8]; 5 nM): 33.3%
Selectivity Index (LO2 vs MHCC-97H) [9]: 5750.0
IC50 [9]: 11.5 ± 1.53 µM
wound closure [10]: significantly suppressed wound closure
tumor cell morphology [11]: the cells shrank and floated and no longer adhered to the wall
proportion of cells in the G1 phase [12]: 70.99%
proportion of cells in the G2/M phases [12]: 12.44%

C[C@@H](c1cccc(-c2ncc(OCC3CCN(C)CC3)cn2)c1)n1nc(-c2cccc(C#N)c2)ccc1=O [(S)-5b]
IC50 [1]: 118 ± 56 nM

CC(Oc1cnc(-c2cccc(C(C)n3nc(-c4cccc(C#N)c4)ccc3=O)c2)nc1)C1CCN(C)CC1 [(S, R)-12a]
IC50 [2]: 195 ± 73.2 nM
IC50 [3, 13]: 205 nM and 210 nM

CC(Oc1cnc(-c2cccc(C(C)n3nc(-c4cccc(C#N)c4)ccc3=O)c2)nc1)C1CCN(C)CC1 [(S, S)-12a]
IC50 [2]: 35.8 ± 6.8 nM
IC50 [3, 13]: 48.3 nM and 48 nM

CN1CCC(COc2cnc(-c3cccc(Cn4nc(-c5cccc(C#N)c5)ccc4=O)c3)nc2)CC1 [Tepotinib, tepotinib, reference compound]
IC50 ([3]; Homo sapiens, MHCC97H, 48 h, read-out: MHCC97H Cell IC50): 13 ± 2 nM
IC50 ([3]; Homo sapiens, MHCC97H, read-out: IC50 on MHCC-97H): 13 ± 2 nM
IC50 [7]: 1950 ± 349 nM
IC50 [9]: 8.73 ± 0.841 µM

(R,R)-3-(1-(1-(3-(5-(1-((1-Methyl-1,2,3,6-tetrahydropyridin-4-yl)oxy)ethyl)pyrimidin-2-yl)phenyl)ethyl)-6-oxo-1,6-dihydropyridazin-3-yl)benzonitrile [(R, R)-12b]
IC50 [3, 13]: 130 ± 38 nM

(R,S)-3-(1-(1-(3-(5-(1-((1-Methyl-1,2,3,6-tetrahydropyridin-4-yl)oxy)ethyl)pyrimidin-2-yl)phenyl)ethyl)-6-oxo-1,6-dihydropyridazin-3-yl)benzonitrile [(R, S)-12b]
IC50 [3, 13]: 9 ± 5 nM

(S,R)-3-(1-(1-(3-(5-(1-((1-Methyl-1,2,3,6-tetrahydropyridin-4-yl)oxy)ethyl)pyrimidin-2-yl)phenyl)ethyl)-6-oxo-1,6-dihydropyridazin-3-yl)benzonitrile [(S, R)-12b]
IC50 [3, 13]: 616 ± 78.2 nM

(S,S)-3-(1-(1-(3-(5-(1-((1-Methyl-1,2,3,6-tetrahydropyridin-4-yl)oxy)ethyl)pyrimidin-2-yl)phenyl)ethyl)-6-oxo-1,6-dihydropyridazin-3-yl)benzonitrile [(S, S)-12b]
IC50 [3, 13]: 136 ± 52 nM

From article PMC9457593, “Design, Synthesis, and Evaluation of New Mesenchymal–Epithelial Transition Factor (c-Met) Kinase Inhibitors with Dual Chiral Centers” (Molecules, 2022)
